# Experimental data published in patent publication US8697747B2, “Enhancing coagulation or reducing fibrinolysis” (THe UAB Research Foundation, priority 2009, dated 2014).
# How the values were obtained:
# [1] = tested on: plasma from donors treated with warfarin; assay: Thrombelastography/CLSM in plasma of warfarin-treated donors with or without tPA; type: biochemical, human; settings: warfarin-treated subjects, tPA 100 IU/mL; 100 μM CORM-2
# Experimental: Pooled normal plasma (George King Bio-Medical, Overland Park, Kans.) anticoagulated with sodium citrate was utilized for experimentation. […] Plasma anticoagulated with sodium citrate procured from anonymous donors treated with warfarin was also obtained from the same vendor.
# Plasma sample composition of experiments without tPA addition. The final volume for all subsequently described plasma sample mixtures was 359.6 μL. Sample composition consisted of 326 μL of plasma, 10 μL of tissue factor reagent (0.1% final concentration in dH2O; Instrumentation Laboratory, Lexington, Mass.), 3.6 μL of dimethyl sulfoxide (DMSO) or DMSO with CORM-2 (100 μM final concentration; Sigma-Aldrich, St. Louis, Mo.), and 20 μL of 200 mM CaCl2. Tissue factor stock was kept on ice prior to use and was remade every two hours. […] DMSO was added to dry CORM-2 just prior to placement into the plasma mixture. Six replicate experiments were performed with pooled normal plasma with or without CORM-2 added, whereas plasma obtained from subjects treated with warfarin underwent singlicate experiments with or without CORM-2 exposure.
# Plasma sample composition of experiments with tPA addition. […]
# Clot Lifespan Model Analyses. […] Time to maximum rate of lysis (TMRL): This is the time interval (sec) measured from the time of maximum strength to the time when the velocity of clot disintegration is maximal. […]
# [2] = tested on: PAI-1 deficient plasma; assay: CLSM thrombelastography with tPA, PAI-1 deficient plasma; type: biochemical, human; settings: 100 μM CORM-2, tPA 100 IU/mL, median, n=8
# Experimental: Pooled normal plasma (George King Bio-Medical, Overland Park, Kans.) anticoagulated with sodium citrate was utilized for experimentation. […] Factor XIII (FXIII) deficient plasma anticoagulated with sodium citrate was also obtained from the same vendor.
# Plasma Sample Composition. The final volume for all subsequently described plasma sample mixtures was 359.4 μL. Sample composition consisted of 316 μL of plasma; 10 μL of tissue factor (0.1% final concentration in 0.9% NaCl; Diagnostica Stago, Asnieres, France), 3.6 μL of dimethyl sulfoxide (DMSO) or DMSO with CORM-2 (Sigma-Aldrich, St. Louis, Mo.) or DMSO with inactivated CORM-2 (iCORM-2), 10 μL of tissue-type plasminogen activator (tPA, 580 U/μg, Genentech, Inc., San Francisco, Calif.) diluted with 10 mM potassium phosphate buffer (pH 7.4) for a final activity of 100 IU/mL, and 20 μL of 200 mM CaCl2. […] This concentration of CORM-2 was chosen because the concentration of CO released would be expected to be in the mid to lower ranges used in previously reported ex vivo, in vitro, and cell-based experiments (Motterlini et al. 2002; Megias et al. 2007; Chlopicki et al. 2006; Dong et al. 2008). […] (Motterlini et al. 2005). While CORM-2 decays slowly in DMSO, DMSO was added to the dry compound just prior to placement into the plasma mixture. The specific series of experiments are subsequently presented.
# Assessment of the Effects of CORM-2 on CLSM Parameters in FXIII, PAI-1, TAFI and α2-antiplasmin Deficient Plasmas. These experiments were performed to elucidate the roles played by antifibrinolytic enzymes during CORM-2 mediated modulation of fibrinolysis. Samples of the various deficient plasmas were exposed to 0 or 100 μM of CORM-2 (n=8 per condition). Samples underwent CLSM analyses as subsequently described.
# Clot Lifespan Model Analyses. As described in Example 1, plasma sample mixtures were placed in a disposable cup in a computer-controlled THROMBELASTOGRAPH® hemostasis system (Model 5000, Haemoscope Corp., Niles, Ill.), with addition of CaCl2 as the last step to initiate clotting. Data were collected until clot lysis time occurred. […] As this model involves complete fibrinolysis, TTG is equivalent to ACL, so ACL was not presented as it provides no additional information.
# Statistical Analyses. Data are presented as median (1st, 3rd quartiles). […] Nonlinear and linear analyses and curve fitting of the various CORM-2 concentrations effects on CLSM variables were performed with commercially available software (SigmaPlot 11.0, Systat Software, Inc., San Jose, Calif.). Analyses of the effects of CORM-2 and iCORM-2 on CLSM variables in normal plasma were conducted with Kruskal-Wallis one way analysis of variance on ranks, whereas Mann-Whitney rank sum tests were used to assess the effects of CORM-2 on CLSM variables in the various immunodepleted/congenitally deficient plasma types (SigmaStat 3.1, Systat Software, Inc., San Jose, Calif.). Graphical representation of the data was generated with commercially available software (SigmaPlot 11.0, Systat Software, Inc., San Jose, Calif.; CorelDRAW 12.0, Corel Corporation, Ottawa, Ontario, Canada; Origin 7.5, OriginLab Corp., Northampton, Mass.). A P value of <0.05 was considered significant.
structure (smiles),measurement,setting,value
"[C-]#[O+].[C-]#[O+].[C-]#[O+].[C-]#[O+].[C-]#[O+].[C-]#[O+].[Cl][Ru][Cl].[Cl][Ru][Cl] [CORM-2, tricarbonyldichlororuthenium (II) dimer]",effect on clot lifespan,[1],The clot lifespan was increased in all subjects
same,"increase in MRL, % of baseline values",[1],11-181%
same,CGT (clot growth time),[2],500 s
same,CLS (clot lifespan),[2],1565 s
same,CLT (clot lysis time),[2],1070 s
same,MRL (maximum rate of lysis),[2],−2.2 -dynes/cm^2/sec
same,MRTG (maximum rate of thrombus generation),[2],9.4 dynes/cm^2/sec
same,TMRL (time to maximum rate of lysis),[2],750 s
same,TMRTG (time to maximum rate of thrombus generation),[2],160 s
same,TTG (total thrombus generation),[2],228 dynes/cm^2
